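These data come from cells grown in 96-well plates and exposed to compound for 48 hours at five concentrations. Here, GI50 denotes the concentration required for 50% inhibition of growth.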 Calls of active or inactive are those of the source. No stated cut-off is given here; in the data, active = GI50 up to about 1.1 µM and inactive = higher.
Key:
Assay in all cases: growth of human tumour cells (NCI), 48 h
[1] = tested on: A498
[2] = tested on: A549
[3] = tested on: CAKI-1
[4] = tested on: CCRF-CEM
[5] = tested on: COLO 205
[6] = tested on: DLD-1
[7] = tested on: DMS-114
[8] = tested on: DMS-273
[9] = tested on: EKVX
[10] = tested on: HCC 2998
[11] = tested on: HCT-116
[12] = tested on: HCT-15
[13] = tested on: HL-60
[14] = tested on: HOP-18
[15] = tested on: HOP-62
[16] = tested on: HOP-92
[17] = tested on: HT-29
[18] = tested on: IGROV-1
[19] = tested on: K562
[20] = tested on: KM-20L2
[21] = tested on: KM12
[22] = tested on: LOX IMVI
[23] = tested on: M19-MEL
[24] = tested on: MCF7
[25] = tested on: MOLT-4
[26] = tested on: Malme-3M
[27] = tested on: NCI-H226
[28] = tested on: NCI-H23
[29] = tested on: NCI-H460
[30] = tested on: NCI-H522
[31] = tested on: NCI/ADR-RES
[32] = tested on: OVCAR-3
[33] = tested on: OVCAR-4
[34] = tested on: OVCAR-5
[35] = tested on: OVCAR-8
[36] = tested on: RPMI-8226
[37] = tested on: RXF 393
[38] = tested on: SF-268
[39] = tested on: SF-295
[40] = tested on: SF-539
[41] = tested on: SK-MEL-28
[42] = tested on: SK-MEL-2
[43] = tested on: SK-MEL-5
[44] = tested on: SK-OV-3
[45] = tested on: SN12C
[46] = tested on: SNB-19
[47] = tested on: SNB-75
[48] = tested on: SNB-78
[49] = tested on: SW-620
[50] = tested on: U-251
[51] = tested on: UACC-257
[52] = tested on: UACC-62
[53] = tested on: UO-31
[54] = tested on: XF498

Which results are given for `CCN(CC)c1c(C)c(C(=O)OC)nn1-c1ccccc1`?
GI50 [1]: > 85.1 µM (inactive); GI50 [2]: 97.5 µM (inactive); GI50 [3]: > 44.7 µM (inactive); GI50 [4]: 63.1 µM (inactive); GI50 [5]: > 100 µM (inactive); GI50 [6]: > 100 µM (inactive); GI50 [7]: 38.7 µM (inactive); GI50 [8]: > 100 µM (inactive); GI50 [9]: > 81.1 µM (inactive); GI50 [10]: > 43.7 µM (inactive); GI50 [11]: 89.1 µM (inactive); GI50 [12]: > 100 µM; GI50 [13]: 35.2 µM (inactive); GI50 [14]: > 100 µM (inactive); GI50 [15]: > 100 µM (inactive); GI50 [16]: 71 µM (inactive); GI50 [17]: 70.3 µM (inactive); GI50 [18]: > 100 µM (inactive); GI50 [19]: 36.9 µM (inactive); GI50 [20]: > 100 µM (inactive); GI50 [21]: > 85.3 µM (inactive); GI50 [22]: 86.5 µM (inactive); GI50 [23]: > 66.2 µM (inactive); GI50 [24]: 80.4 µM (inactive); GI50 [25]: 43.1 µM (inactive); GI50 [26]: > 96.6 µM (inactive); GI50 [27]: > 77.1 µM (inactive); GI50 [28]: 33.6 µM (inactive); GI50 [29]: > 100 µM (inactive); GI50 [30]: 63.8 µM (inactive); GI50 [31]: 36.4 µM (inactive); GI50 [32]: 60.5 µM (inactive); GI50 [33]: > 100 µM (inactive); GI50 [34]: > 100 µM (inactive); GI50 [35]: > 100 µM (inactive); GI50 [36]: 23.2 µM (inactive); GI50 [37]: 33.3 µM (inactive); GI50 [38]: 81.3 µM (inactive); GI50 [39]: > 83.6 µM (inactive); GI50 [40]: > 100 µM (inactive); GI50 [41]: > 100 µM (inactive); GI50 [42]: > 89.7 µM (inactive); GI50 [43]: 32.8 µM (inactive); GI50 [44]: > 100 µM (inactive); GI50 [45]: > 100 µM (inactive); GI50 [46]: > 72.1 µM (inactive); GI50 [47]: > 100 µM (inactive); GI50 [48]: > 100 µM (inactive); GI50 [49]: > 100 µM (inactive); GI50 [50]: 61.1 µM (inactive); GI50 [51]: 31.2 µM (inactive); GI50 [52]: > 100 µM (inactive); GI50 [53]: 33 µM (inactive); GI50 [54]: > 34.5 µM (inactive)
